From patent US20120136583A1, “METHOD FOR PREDICTING EFFICACY OF DRUGS IN A PATIENT” (WORLDWIDE INNOVATIVE NETWORK, priority 2009, published 2012)

Key:
[1] = system: non-small cell lung carcinoma (NSCLC), cT4, N0, M1; assay: Clinical course under treatment, patient of Example 1; format: in vivo, human; conditions: Example 1 patient
[2] = system: primary bronchial adenocarcinoma with bilateral pulmonary metastases and asymptomatic cerebral metastases; assay: Clinical course under treatment, patient of Example 3; format: in vivo, human; conditions: Example 3 patient
From the text: A patient was diagnosized in May 2007 for a primary bronchial adenocarcinoma with bilateral pulmonary metastases and asymptomatic cerebral metastases. A surgical treatment has been carried out in November 2008 and two therapeutic lines have been used, namely thirteen cycles of cisplatin-gemcitabin for the first line and Alimta for the second one.
However, based on this score table, avastin associated with a score of 384 has been selected.

[3] = system: bronchial adenocarcinoma T4 with bones and pleural metastases; conditions: Example 2 patient

Molecule | Clinical response / disease status under treatment [2] | Clinical response / disease status under treatment [3] | also measured
CCOc1cc2ncc(C#N)c(Nc3ccc(OCc4ccccn4)c(Cl)c3)c2cc1NC(=O)/C=C/CN(C)C [HKI 272] | – | – | Clinical response / disease status under treatment [1]: efficient; Time on treatment until disease progression [1]: 37 months
Nc1nc2[nH]cc(CCc3ccc(C(=O)N[C@@H](CCC(=O)O)C(=O)O)cc3)c2c(=O)[nH]1 [PEMETREXED] | disease progression | – | –
CCC1=C[C@@H]2CN(C1)Cc1c([nH]c3ccccc13)[C@@](C(=O)OC)(c1cc3c(cc1OC)N(C)[C@H]1[C@@](O)(C(=O)OC)[C@H](OC(C)=O)[C@]4(CC)C=CCN5CC[C@]31[C@@H]54)C2 [VINORELBINE] | – | Three months later, the disease was stable, then progressed | –
C#Cc1cccc(Nc2ncnc3cc(OCCOC)c(OCCOC)cc23)c1 [Tarceva] | – | inefficient and led to a rapid progression | –
BEVACIZUMAB: drug whose major target gene is VEGFA | major response | – | –
